The values below come from US12702649B2, “Method of treating cystic fibrosis airway disease” (priority 2016, dated 2026).

For data set [1], the system named is S. aureus. Put plainly: CF sputum bacterial killing, bacteria-coated grids assay. Format: cell-based, S. aureus (SH1000). Conditions: for bacterial killing in human CF sputum: grid assay, compared to saline. As to the method:
Adults diagnosed with CF were recruited. Patients were asked to swallow saliva and to expectorate all secretions during routine clinic visits. Sputum plugs were visually identified and separated from saliva, weighed and stored at −70° C. in small, tightly sealed containers to minimize water loss under needed. […] To guarantee adequate mixing of sputum with the different solutions, the mixture was homogenized (Sonic Dismembrator Model 100, Fisher Scientific) for 30 seconds. All experiments were conducted in a humidified chamber with constant 5% CO2.
To interrogate individual bacteria killing in CF sputum or in pigs, bacteria-coated grids assay were used (Pezzulo A A, Tang X X, Hoegger M J, Alaiwa M H, Ramachandran S, Moninger T O, et al. Reduced airway surface pH impairs bacterial killing in the porcine cystic fibrosis lung. Nature. 2012; 487(7405):109-13. Epub 2012/07/06. doi: 10.1038/nature11130. PubMed PMID: 22763554; PubMed Central PMCID: PMC3390761; Abou Alaiwa M H, Reznikov L R, Gansemer N D, Sheets K A, Horswill A R, Stoltz D A, et al. pH modulates the activity and synergism of the airway surface liquid antimicrobials beta-defensin-3 and LL-37. Proceedings of the National Academy of Sciences of the United States of America. 2014; 111(52):18703-8. doi: 10.1073/pnas.1422091112. PubMed PMID: 25512526; PubMed Central PMCID: PMC4284593). Gold grids (200 mesh, Ted Pella) were functionalized using a series of intervention: 100 mM 11-mercaptoundecanoic acid (MUA in 100% alcohol, Aldrich) for 60 min at room temperature, 1:1 mixture of 100 mM N-ethyl-N-(3-[…]) carbodiimide) (EDC) and 100 mM N-hydroxysuccinimide (NETS) for 30 min at room temperature, 0.1 mg/ml Neutravidin (Sigma) at 37° C. for 1 hour.
Two different strains of S. aureus were used (SH1000 a human strain for CF sputum killing studies and SA43 a porcine strain for pig studies). Bacteria were grown to mid-log phase, incubated with 0.2 mg/ml N-hydroxysulphosuccinimide (sulpho-NHS)-biotin for 60 min at room temperature, quenched with 100 mM glycine to bind excess free biotin and allowed to attach to Neutravidin-coated grids for 15 minutes prior to the experiment.
After bacteria-coated grids were exposed to pig trachea for 5 minutes or CF sputum for 15 minutes, they were immediately rinsed in phosphate buffered saline and stained with SYTO9/propidium iodide (Live/Dead BacLight Bacterial viability assay, Invitrogen), mounted on slides and imaged on a laser-scanning confocal microscope (Olympus FV1000). Live (green) and dead (red) bacteria were automatically counted using Image-based Tool for Counting Nuclei (ITCN 1.6, UCSB Center for Bio-Image Informatics, UC San Barbara) an ImageJ (U.S. National Institutes of Health, Bethesda, Maryland, USA) plugin.

Data set [2] relates to nasal pH of healthy volunteers. Put plainly: Nasal pH of healthy human volunteers after instillation. Conditions: for nasal pH: 250 μl of 0.3 M solution. Format: in vivo. The protocol: (§1) Prior to each study the pH probe was calibrated in buffer solutions of pH 6, 7 and 8 (VWR, West Chester, PA). Voltage was recorded with an Oakton pH6+ meter (Cole-Palmer, Vernon Hills, IL) and corrected to temperature. The probe was positioned at 6 cm from the most caudal aspect of the columella. The probe remained in position until the readings were stable. All measurements were taken from the right nostril and by the same operator. Subjects on intranasal medications (steroids or anticholinergics) or with history of nasal or sinus surgery were excluded from the study.

The subject of another data set is human CF airway cultures. The data set can be described thus: ASL viscosity in human CF airway cultures. It counts as cell-based.
In data set [3] the test system is tracheal ASL of non-CF piglets. Put plainly: Tracheal ASL pH of non-CF (wild type) newborn piglets after aerosolized buffer. It counts as in vivo, pig. From the text: (§2) To measure pH in pigs in vivo, non-invasive dual lifetime referencing was used to interrogate a 3×3 mm planar optode (pH sensitive foil, PreSens GmbH) applied directly to the tracheal surface of anesthetized pigs (Pezzulo A A, Tang X X, Hoegger M J, Alaiwa M H, Ramachandran S, Moninger T O, et al. Reduced airway surface pH impairs bacterial killing in the porcine cystic fibrosis lung. Nature. 2012; 487(7405):109-13. Epub 2012/07/06. doi: 10.1038/nature11130. PubMed PMID: 22763554; PubMed Central PMCID: PMC3390761). pH-dependent polarized light phase shift was measured using a single channel pH meter (pH-1 mini; PreSens GmbH). The tip of the fiber optic pH meter was kept at the same constant distance from the tracheal surface in all samples and confirmed by recording the amplitude. Calibration before each set of measurements was done by measuring phase shift from flat filters soaked in standard pH buffers. All measurements were obtained in a humidified chamber at 37° C. and constant 5% CO2 to mimic physiologic conditions.
Pigs were initially sedated with Ketamine (20 mg/kg, IM injection) and Xylazine (2 mg/kg, IM injection) and anesthetized using Propofol (2 mg/kg, IV injection). The trachea was surgically exposed and accessed anteriorly. A small anterior window through the tracheal rings accessed a tracheal window to interventions and pH measurements. All studies obtained in a 100% humidified chamber at 37° C. and constant 5% CO2 to mimic physiologic conditions.

The subject of data set [4] is tracheal ASL of CF piglets. Conditions: 15 minutes after aerosolized tromethamine.
Description: as §2
Pigs were initially sedated with Ketamine (20 mg/kg, IM injection) and Xylazine (2 mg/kg, IM injection) and anesthetized using Propofol (2 mg/kg, IV injection). The trachea was surgically exposed and accessed anteriorly. A small anterior window through the tracheal rings accessed a tracheal window to interventions and pH measurements. […]

Data set [5] deals with S. aureus. Conditions: 15 minutes after aerosolized tromethamine, compared to NaCl.
Description: Pigs were initially sedated with Ketamine (20 mg/kg, IM injection) and Xylazine (2 mg/kg, IM injection) and anesthetized using Propofol (2 mg/kg, IV injection). The trachea was surgically exposed and accessed anteriorly. A small anterior window through the tracheal rings accessed a tracheal window to interventions and pH measurements. All studies obtained in a 100% humidified chamber at 37° C. and constant 5% CO2 to mimic physiologic conditions. […]
The conditions of data set [6]: intravenous, cited from earlier work.
Data set [7] deals with nasal epithelia of CF subjects. From the text:
Methods Mol Biol. 2011; 741:69-86. doi: 10.1007/978-1-61779-117-8_6. PubMed PMID: 21594779; PubMed Central PMCID: PMCPMC3760477).

Data set [8] can be described thus: Buffering capacity by acid titration. It counts as physicochemical. The conditions noted are these: 0.3 M tromethamine titrated with 0.1 M HCl. The protocol: 100 mM HCl was delivered into 5 mL of buffer at a rate of 0.2 ml/min. Titration was carried out to endpoint of pH 3. The volume of HCl delivered was recorded and used to calculate the acid equivalents needed to […] pH by 1 unit or buffering capacity.

The next data set relates to mice. From the text: FIGS. 14A-14G. […] (A) BAL pH measured 3.5 hr after THAM inhalation. Mice were aerosolized with THAM (10× dose used in our prior human studies) or water (ctrl) in a whole-body exposure chamber for 3.5 hrs/d (5 d total). 3 d later mice were euthanized/studied. (B) BAL-total cell cts. (C) BAL-% alveolar macrophages. (D) BAL-LDH activity. […] (F) Airway resistance (FlexiVent). […] (G) Lung histology (HE). Data are mean±SEM. n=4-10/group. * p<0.05, t-test. Some SEM bars are hidden in mean bars.

In data set [9] the test system is human non-CF/CF airway epithelial cultures. Conditions: THAM (1 μl), pH at 0 & 15 m. The protocol:
FIGS. 15A-15B. […] (A) THAM (1 μl) was applied to human n non-CF/CF airway epithelial cultures. pH was measured at 0 & 15 m with SNARF. Data are mean±SEM. n=6 donors/group. * p<0.05, t-test.

In the next data set the test system is non-CF newborn pig. The conditions noted are these: PARI LC-PLUS nebulizer, distal mainstem bronchi.
For data set [10], the system named is nasal pH of subjects with cystic fibrosis (CF). As to the method: as §1
The next data set has as its system human subjects. Conditions: 24 h after aerosolized nasal delivery. The protocol:
as §1

The next data set concerns coagulase-negative. Conditions: aerosolized, non-CF subjects; cited from earlier work.

Each structure is given as a SMILES string. Entries after “also recorded” stand apart in the source; their conditions may differ. Read-outs that look alike come from different tables or passages of the source. A value given as a limit tells only on which side of the number the result lay.

Description for human CF airway cultures: (A) Effect of saline or THAM on ASL viscosity in humanCF airway cultures. […] Data are mean±SEM. n=6 individual donors/group. * p<0.05, t-test.
Two approaches are used to investigate the viscoelastic properties of airway mucus. […] Second, in airway epithelial cell cultures from non-CF and CF newborn pig and human donors, mucus viscosity (±THAM) is estimated by measuring the diffusion of fluorescent FITC-dextran with a FRAP assay and ASL/mucus pH using the pH indicator SNARF-1 (FIG. 11D&13A). Viscosity is directly correlated to diffusion. If the viscosity is high, FITC-dextran will slowly diffuse to the photo-bleached ASL areas.
Description for non-CF newborn pig: THAM was aerosolized into a sedated, non-CF newborn pig with a PARI LC-PLUS® nebulizer, using a cone mask over the snout. After sedation, a pH probe was passed through the vocal cords and into the distal mainstem bronchi. ASL pH was continuously measured.

For the compound `O=C([O-])O.[Na+]` [NaHCO3], the “bacterial killing in human CF sputum” value in the data set on S. aureus [1] was “improved bacterial killing to non-CF levels”. Besides, in the data set on S. aureus [1] (sputum mixed 1:1 v/v with 200 mM NaHCO3, compared to equimolar NaCl, grids recovered after 15 minutes), the “CF sputum ability to kill S. aureus” value was “increased the CF sputum ability to kill S. aureus”. Moreover, the “effect of increasing HCO3− concentration on hBD-3 antimicrobial activity” value is reported as “slightly inhibited” in the data set on S. aureus Xen-29 (constant pH 7.5, absence of Ca2+ & Mg2+, 1 μg/ml hBD-3, NaHCO3 10-80 mM) and “inhibited” with S. aureus Xen-29 (constant pH 7.5, presence of 1 mM Ca2+ & 1 mM Mg2+, 5 μg/ml hBD-3). The “effect of increasing HCO3− concentration on LL-37 antimicrobial activity” value with S. aureus Xen-29 (constant pH 7.5, absence of Ca2+ & Mg2+, 100 μm/ml LL-37, NaHCO3 10-80 mM) was “slightly inhibited”; in the data set with S. aureus Xen-29 (constant pH 7.5, presence of 1 mM Ca2+ & 1 mM Mg2+, 100 μm/ml LL-37), “inhibited”. In data set [2] (250 μl of 2% (238 mM) NaHCO3), the “time for nasal pH to return to baseline” value is no more than 60 minutes. In addition, the “nasal ASL pH” value in data set [2] (250 μl of 2% (238 mM) NaHCO3 aerosolized into the nose) is listed as “increased ASL pH”. In data set [2] (NaHCO3 increased to 5% or 7%), the “effect of a higher concentration on the duration of the rise in nasal pH” value is listed as “no additional effect”. Also, in the data set with human CF airway cultures, the ASL viscosity result is “reduced viscosity”. The “tracheal ASL pH” value in [3] (250 μl of 200 mM NaHCO3 aerosolized onto exposed trachea) was “alkalinized ASL pH”. Moreover, the “time for ASL pH to return to baseline” value in data set [3] (NaHCO3/HCO3− aerosol, non-CF piglet trachea) is reported as no more than 30 minutes.
Regarding `NC(CO)(CO)CO` [tromethamine, tris(hydroxymethyl)aminomethane], in data set [4], the “tracheal ASL pH” value is given as “increased pH”. Moreover, the “bacterial killing in human CF sputum” value with S. aureus [1] is on record as “improved bacterial killing to non-CF levels; also recorded: acutely restored ASL bacterial killing”. Besides, in the data set with S. aureus [1] (sputum mixed 1:1 (w/v) with 300 mM tromethamine ± 1197 mM (7%) NaCl, compared to hypertonic saline alone), the “ability of CF sputum to kill S. aureus” value is “increased the ability of CF sputum to kill S. aureus”. Besides, the “effect on hBD-3 antimicrobial activity” value in the data set on S. aureus Xen-29 (10 mM tromethamine (pH 8.65) vs 10 mM xylitol (pH 7.02), 1 μg/ml hBD-3, ionic strength 125 mM) is listed as “enhanced”. For the same compound, the “effect on LL-37 antimicrobial activity” value in the data set with S. aureus Xen-29 (10 mM tromethamine (pH 8.65) vs 10 mM xylitol (pH 7.02), 10 μg/ml LL-37, ionic strength 125 mM) is “enhanced”. Moreover, the ASL bacterial killing entry is recorded as “acutely restored ASL bacterial killing” in the data set with S. aureus [5] (listed as THAM) and “enhanced bacterial killing” in the data set on S. aureus [5] (listed as Tromethamine). For the same compound, in data set [6] (serum), the “persistence of serum alkalinizing effect” value was 16 to 48 h. In addition, the “half-life when given intravenously” value in data set [6] is reported as “long half-life”. For the same compound, in data set [7] (baseline vs 30 min after 250 μl 0.3 M tromethamine), the nasal voltage entry is recorded as “no effect”. For the same compound, the epithelial barrier integrity entry in data set [7] (inferred from nasal voltage) is on record as “no disruption”. Besides, the “additional buffering range at lower pH values” in [8] is listed as 3-6 pH. The “airway (BAL) pH” value in the data set with mice (BAL pH 3.5 hr after THAM inhalation) is listed as “raised the airway pH”. Further, in the data set on mice (mouse, in vivo), the “BAL other proinflammatory cytokines, THAM vs water control” value is “no difference”. Besides, in the data set with mice (mouse, in vivo), the “clinical signs, gross pathology, BAL cell counts/cytokines/LDH, bronchoconstriction, histopathology” value was “no adverse treatment related findings”. In addition, the “tolerability of THAM exposure” value in the data set with mice (mouse, in vivo) is reported as “well tolerated”. The “nasal pH” value in data set [2] is “alkalinized the nasal pH”; in data set [10] (250 μl tromethamine) it was “increased nasal pH”. In addition, the “pH change at 30 min as share of the maximal pH response” value was 30% in data set [2] (30 min after THAM aerosolization, non-CF noses) and ~ 80% in data set [10] (30 min after THAM aerosolization into the nose of people with CF). In addition, the “alkalinization of CF vs non-CF epithelia” value in data set [9] is “Alkalinizes CF Epithelia Greater than Non-CF”. In addition, in the data set with non-CF newborn pig, the “airway alkalinization over time” value is “Prolonged Airway Alkalinization”. Besides, the ASL viscosity result in the data set with human CF airway cultures is “reduced viscosity”. Further, the “tracheal ASL pH immediately after administration” value in data set [3] (250 μl 0.3M tromethamine) is “raised pH”. In addition, the “tracheal ASL pH at 60 minutes” value in [3] (250 μl 0.3M tromethamine, 60 minutes) was “still higher than baseline”. The “duration of increased nasal pH” value in data set [10] (250 μl tromethamine, 30 minutes was the total duration of the experiment) was found to be 30 minutes. In addition, the adverse effects reported entry in the data set with human subjects is listed as “no adverse effects”.
For `OC[C@@H](O)[C@H](O)[C@@H](O)CO` [xylitol], the “nasal coagulase-negative S. aureus colonization” value with coagulase-negative is “decreased”. Moreover, in [2], the “nasal pH” value is “no effect”.
